Literature values as cited in patent US9770423B2, “Modulation sAPP, sAAPα and BDNF levels in individuals diagnosed with FXS and ASD” (Indiana University Research and Technology Corp., priority 2012, dated 2017).

How the values were obtained:
fmr1 knockout mouse = conditions: literature; cited from earlier work
subjects with FXS = conditions: cited from earlier work
males with FXS = conditions: cited from earlier work
[1] = tested on: drinking-in-the-dark mouse model; conditions: cited from earlier work
adults with FXS = conditions: single dose, cited from earlier work
[2] = tested on: cerebellar granule cells from FMR1 knockout mice; conditions: cultured cerebellar granule cells from FMR1 knockout mice; cited from earlier work
[3] = tested on: persons with FXS and comorbid ASD; conditions: cited from earlier work

Question: What does the source list for NC[C@H](CC(=O)O)c1ccc(Cl)cc1 (single isomer, unassigned) [STX209]?
Answer: effect on phenotype of fmr1 knockout mice (fmr1 knockout mouse): correction of aberrant protein synthesis and dendritic spine abnormalities; ABC-SW and VABS Socialization, post-hoc subset (subjects with FXS; 27 subject subset with baseline ABC-SW score of ≧8): significant STX209-associated improvement; primary outcome measure, ABC Irritability (ABC-I) subscale (subjects with FXS; 63 subjects aged 6 to 40 years with FXS): not associated with improvement; Social Avoidance scale (ABC-SA), post-hoc analysis (subjects with FXS; 63 subjects with FXS): significant group-wide improvement; global measures (CGI-I, CGI-S), other ABC subscales, Visual Analog Scale (subjects with FXS; 63 subjects with FXS): Group-wide effects were also not noted; subjects reporting sedation (subjects with FXS; 63 subjects with FXS): 8%

Question: With COC(=O)N1CC[C@@H]2[C@H]1CCC[C@@]2(O)C#Cc1cccc(C)c1 [AFQ056] as the molecule, how does the “response in subset with full FMR1 gene methylation (ABC, CGI-I, Visual Analogue Scale, Repetitive Behavior Scale-Revised)” value (males with FXS; 7 subject subset) read?
Answer: significant response to AFQ056 compared to placebo

Question: And the group treatment effect (males with FXS; 30 males with FXS aged 18 to 35 years)?
Answer: not associated with significant group treatment effect

Question: For Cc1cccc(C#Cc2ccccc2)n1 [MPEP, 2-methyl-6-(phenylethynyl)-pyridine], which “effect on phenotype of fmr1 knockout mice” value (shortened to “effect on phenotype”) (fmr1 knockout mouse) is on record?
Answer: reverse phenotypic characteristics, including audiogenic seizures, altered pre-pulse inhibition (PPI), and open field hyperactivity

Question: For Cc1nc(C#Cc2cccnc2)cs1 [MTEP, 3-((2-Methyl-4-thiazolyl)ethynyl)pyridine], which alcohol intake [1] is on record?
Answer: reduced alcohol intake

Question: For CC(=O)[C@H]1CC[C@H]2[C@@H]3CC[C@H]4C[C@H](O)CC[C@]4(C)[C@H]3C(=O)C[C@]12C [alphaxalone], which “effect on phenotype” value (fmr1 knockout mouse) is on record?
Answer: reductions in anxiety and rescue of audiogenic seizures

Question: For CN1CC(=O)NC1=NC(=O)Nc1cccc(Cl)c1 [fenobam], which “subjects experiencing mild sedation” value (adults with FXS; 3 of 12 adults with FXS) is on record?
Answer: 25%

Question: What about the “subjects who experienced clinical benefit” value (adults with FXS; 9 of 12 adults with FXS, reductions in hyperactivity and anxiety) of the same molecule?
Answer: 75%

Question: What about the pharmacokinetics (adults with FXS; 12 adults with FXS) of the same molecule?
Answer: variable pharmacokinetics

Question: And the tolerability (adults with FXS; 12 adults with FXS)?
Answer: good tolerability

Question: Which “effect on phenotype” value (fmr1 knockout mouse) does the source give for Oc1noc2c1CCNC2 [gaboxadol] here?
Answer: restored neuron excitability deficits in the amygdala, reduced hyperactivity, and reduced PPI deficits

Question: Which results are given for CC12CC3CC(C)(C1)CC(N)(C3)C2 [memantine]?
Answer: dendritic spine development and synapse formation [2]: correction of dendritic spine development and synapse formation; subjects with clinical response (CGI-I very much improved or much improved) ([3]; four of 6 persons with FXS and comorbid ASD): 67%; subjects with treatment limiting irritability ([3]; of 6 persons): Two subjects

Question: With NCCS(=O)(=O)O [taurine] as the molecule, how does the “effect on phenotype” value (fmr1 knockout mouse) read?
Answer: Improvements in memory acquisition and retention
